Results reported in patent US12636260B2, “Application of α-asarone in preparation of medicine for preventing or treating hemorrhagic stroke” (CHENGDU XINRUI TAIKANG TECHNOLOGY CO., LTD., priority 2021, dated 2026).

Legend:
Type in all cases: in vivo, rat
SAH rats [1] = test: Short-term neurological function of SAH rats (Garcia score, beam balance test, bleeding score); settings: SAH model; for Beam balance score / Garcia score: 24 hours after modeling
Description: Experimental grouping: At 2 h after endovascular perforation or collagenase VII injection, Zea Longa score was used to evaluate the neurological function of rats. Successful model rats were randomly divided into groups for administration.
All groups were administrated through the tail vein injection except for group N administrated intraperitoneally.
The rats were fasted for 12 hours before operation, and were anesthetized with 4% isoflurane, and kept anesthetized with 2% isoflurane. The animals were fixed in the supine position with the body temperature maintained at about 37° C. A traditional skin incision of the neck was performed along the midline. The muscle and fascia were separated along the medial margin of the sternocleidomastoid muscle to expose the right side, then the common carotid artery (CCA), external carotid artery (ECA) and internal carotid artery (ICA) were bluntly separated with disposal lines placed at CCA proximal end, ICA and ECA for use. The CCA proximal end and the ECA were ligated, and the ICA was temporarily clamped with an arterial clip, and then a small hole was poked with a needle at about 4 mm from the bifurcation at the CCA. A nylon suture was introduced into the CCA from the hole and advanced through the ICA after releasing the arterial clip, and the suture was inserted intracranially. […] The suture moved forward for roughly 2 mm to perforate the artery followed by instant withdraw, and then the suture was completely removed and the ICA was ligated. Finally, the incision was cleaned with normal saline and sutured. The sham group conducted the same procedure as the model group except for the perforation. After awakening from anesthesia, the animals were raised normally.
The SAH severity was grading after rat's euthanasia, i.e., completing the evaluation of short-term neurological function. The score was determined by the amount of subarachnoid hemorrhage on the surface of basal cistern and brain tissue which was divided into six parts by the Willis ring composed of basilar artery, anterior cerebral artery, internal carotid artery, posterior cerebral artery and posterior communicating artery. Each part was graded from 0 to 3 points according to the amount of subarachnoid blood clots, i.e., 0 points: no subarachnoid blood; 1 point: a small amount of subarachnoid blood; 2 points: moderate amount of blood clots with recognizable arteries; 3 points: blood clots cover all arteries in the area. All 6 part scores were added up for a total of 18 points. According to the final score, SAH hemorrhage severity could be divided into mild subarachnoid hemorrhage (0 to 7 points), moderate subarachnoid hemorrhage (8 to 12 points), and severe subarachnoid hemorrhage (13 to 18 points). The moderate to severe SAH models were selected for statistical analysis (score≥8 points).
According to Zea Longa's neurological function score, the rats were scored 2 hours after the operation when they were awake from anesthesia. Successful model rats with a score of 1 to 3 points were enrolled in the group: • 0 points: no neurological deficits with normal activity; • 1 point: inability to fully extend the contralateral forepaw; • 2 points: the animal appears to turn in circles when crawling; • 3 points: the animal tends to lean to the hemiplegic side; • 4 points: the animal cannot walk spontaneously or loses consciousness. 1.4 Assessment of Short-Term Neurological Function
The neurological function of rats was comprehensively evaluated with Garcia score and beam balance test 24 hours after modeling. The criteria of Garcia score are shown in Table 1, which evaluates the movement, sensation, climbing and limb symmetry of the rats with the score range of 3 to 18 points. The lower the score, the more severe the neurological injury. The criteria of the beam balance test are shown in Table 2, which evaluated the proprioception and body coordination of rats with the score range of 0 to 6 points. […]

SAH rats [2] = test: Long-term survival rate of SAH rats; settings: for Survival rate / 24-hour mortality rate: 2 hours after modeling then once a day for 14 days
Description: The experimental materials, grouping and modeling methods were the same as those in effect embodiment 1. The rats were immediately administrated 2 hours after SAH modeling according to the grouping administration protocol and continued to be administrated once a day for 14 days thereafter, and the survival of the rats was observed and recorded for 14 days. The mortality rate within 24 hours in group S was as high as 53.8%.

SAH rats [3] = test: Glutamate and GABA content in brain tissue, SAH rats; settings: 12 to 24 hours after operation, group M
Description: The rats were deeply anesthetized, and decapitated to collect the brain at 12-24 hours after modeling. Then about 60 to 120 mg of brain cortex on the hemorrhagic side were weighed, homogenized with 10 times the volume of ice-cold centrifuge buffer for biochemical detection, homogenized for 10 min in an ice bath, and centrifuged at 4° C. for 30 minutes (14,000 rpm/min). The contents of glutamate and GABA in the supernatant were detected according to the instructions of glutamate content detection kit and rat GABA Elisa kit.

SAH rats [4] = test: Secondary epilepsy in SAH rats (Racine score, seizures); settings: within 24 hours after SAH
Description: The experimental materials, grouping, modeling method and administration protocol were the same as those in the effect embodiment 1, and the seizures of rats in each group were observed within 24 hours after SAH.

SAH rats [5] = test: Short-term neurological function of SAH rats (Garcia score, beam balance test, bleeding score); settings: SAH model, 24 hours after modeling; group O, α-asarone emulsion oral administration 40 mg/kg
[6] = group H, α-asarone emulsion injection 30 mg/kg tail vein
[7] = group L, α-asarone emulsion injection 7.5 mg/kg tail vein
[8] = group M, α-asarone emulsion injection 15 mg/kg tail vein
[9] = group O, α-asarone emulsion oral administration 40 mg/kg

C/C=C/c1cc(OC)c(OC)cc1OC [α-asarone, trans-2,4,5-trimethoxy-1-propenylbenzene]
Beam balance score (SAH rats [1]; [6]): 3.22
Garcia score (SAH rats [1]; [6]): 11.79
Beam balance score (SAH rats [1]; [7]): 3.30
Garcia score (SAH rats [1]; [7]): 10.82
Beam balance score (SAH rats [1]; [8]): 2.70
Garcia score (SAH rats [1]; [8]): 12.29
curative effect compared with nimodipine (group N) and vinpocetine (group V) (SAH rats [1]; group M, 15 mg/kg): better
survival time (vs group S) (SAH rats [2]; 14 days, groups M, H, O and N): prolonged
Survival rate (SAH rats [2]; Day 14, group H, α-asarone emulsion injection 30 mg/kg tail vein): 55.6%
Survival rate (SAH rats [2]; Day 14, group L, α-asarone emulsion injection 7.5 mg/kg tail vein): 37.5%
Survival rate (SAH rats [2]; Day 14, group M, α-asarone emulsion injection 15 mg/kg tail vein): 61.5%
Survival rate (SAH rats [2]; Day 14, group O, α-asarone emulsion oral administration 40 mg/kg): 62.5%
24-hour mortality rate (SAH rats [2]; [6]): 22.2%
24-hour mortality rate (SAH rats [2]; [7]): 50.0%
24-hour mortality rate (SAH rats [2]; [8]): 23.1%
24-hour mortality rate (SAH rats [2]; [9]): 25.0%
mortality rate within 24 hours (vs group S) (SAH rats [2]; groups M, H, O and N): significantly reduced
GABA content in the hemorrhagic brain tissue (SAH rats [3]): significantly reduce
glutamate content in the hemorrhagic brain tissue (SAH rats [3]): significantly reduce
incidence of secondary epilepsy (SAH rats [4]): significantly reduce
Clonic seizures (%) (SAH rats [4]; [6]): 8.0%
Racine score (SAH rats [4]; [6]): 0.73 ± 1.44
Tonic seizures (%) (SAH rats [4]; [6]): 6.7%
Clonic seizures (%) (SAH rats [4]; [7]): 6.7%
Racine score (SAH rats [4]; [7]): 0.53 ± 1.46
Tonic seizures (%) (SAH rats [4]; [7]): 6.7%
Clonic seizures (%) (SAH rats [4]; [8]): 5.6%
Racine score (SAH rats [4]; [8]): 0.44 ± 1.34
Tonic seizures (%) (SAH rats [4]; [8]): 5.6%
Clonic seizures (%) (SAH rats [4]; [9]): 15.4%
Racine score (SAH rats [4]; [9]): 0.77 ± 1.59
Tonic seizures (%) (SAH rats [4]; [9]): 7.7%
Beam balance score (SAH rats [5]): 3.30
Garcia score (SAH rats [5]): 10.94
